In PMC7156458, “Synthetic biology based construction of biological activity-related library of fungal decalin-containing diterpenoid pyrones” (Nature Communications, 2020):
Where two headings read alike, the source gives them in different places.

Assays:
[1] = cytotoxicity in Drosophila DL1 cells; assay type: cell-based; conditions: Drosophila, DL1 cells
Protocol: (§1) We screened the DDPs on the Drosophila assay system for cytotoxicity, inhibitory activity of innate immune signalling and insecticidal activity. The cytotoxicity of the DDPs was evaluated using two cell lines, embryonic macrophage-derived DL1 cells[58]–[60] and larval blood cell-derived l(2)mbn cells, and their IC50 values are listed in Supplementary Table 23.

[2] = tested on: DL1 cells; test: cytotoxicity in Drosophila DL1 cells; assay type: cell-based; conditions: DL1 cells; for % viability, viability 2: replicate 2, relative to DMSO 1%; for % viability, viability 1: replicate 1, relative to DMSO 1%; for IC50: cytotoxicity
Protocol: as §1

[3] = tested on: human immunodeficiency virus-1 (HIV-1); test: anti-HIV MAGI assay; assay type: cell-based; conditions: Human immunodeficiency virus 1, MAGI, anti-HIV
Description: We examined the inhibitory activities of DDPs against various species of bacteria (both gram-negative and gram-positive bacteria), fungi and viruses. […] In contrast, preliminary screening of the DDPs for anti-viral agents with hepatitis B virus (HBV), measles virus (MV), Epstein-Barr virus (EBV), herpes simplex virus (HSV) and human immunodeficiency virus-1 (HIV-1) indicated their selective inhibition of HIV.

[4] = tested on: DMS273; test: cells; design: species or system JFCR39 human cancer cell lines; JFCR39 panel growth inhibition, sulforhodamine B total protein after 48 h; conditions: Homo sapiens, DMS-273, 48 h
Protocol: (§2) Supplementary Note 24. Antiproliferative effects across the panel of JFCR39 cancer cell lines A panel of 39 human cancer cell lines, termed JFCR39, were previously described13-16. Cells were grown in RPMI-1640 (FUJIFILM Wako Pure Chemical Corporation, Tokyo, Japan) supplemented with 1 µg mL-1 kanamycin and 5% (v/v) fetal bovine serum (Nichirei Biosciences Inc, Tokyo, Japan) and incubated at 37°C in a humidified atmosphere supplemented with 5% CO2. Drug efficacy was assessed as changes in total cellular protein after 48 hours of drug treatment using a sulforhodamine B assay. Assays were done in duplicate and the GI50 was calculated as described previously13,16. The antitumor profile across the JFCR39 panel, or fingerprints were then compared to reference database containing ~2000 compounds by COMPARE algorithm16,17. Initially, we evaluated new DDP analogues for their antiproliferative activities across the panel of 39 human cancer cell lines, JFCR39[50],[51].

[5] = tested on: HCC2998; test: cells; design: species or system JFCR39 human cancer cell lines; JFCR39 panel growth inhibition, sulforhodamine B total protein after 48 h; conditions: Homo sapiens, HCC 2998, 48 h
Protocol: as §2

[6] = tested on: HCT-15; test: cells; design: species or system JFCR39 human cancer cell lines; JFCR39 panel growth inhibition, sulforhodamine B total protein after 48 h; conditions: Homo sapiens, HCT-15, 48 h
Protocol: as §2

[7] = tested on: HT-29; test: cells; design: species or system JFCR39 human cancer cell lines; JFCR39 panel growth inhibition, sulforhodamine B total protein after 48 h; conditions: Homo sapiens, HT-29, 48 h
Protocol: as §2

[8] = tested on: MKN-A; test: cells; design: species or system JFCR39 human cancer cell lines; JFCR39 panel growth inhibition, sulforhodamine B total protein after 48 h; conditions: 48 h
Protocol: as §2

[9] = tested on: MKN-B; test: cells; design: species or system JFCR39 human cancer cell lines; JFCR39 panel growth inhibition, sulforhodamine B total protein after 48 h; conditions: 48 h
Protocol: as §2

[10] = tested on: MKN45; test: cells; design: species or system JFCR39 human cancer cell lines; JFCR39 panel growth inhibition, sulforhodamine B total protein after 48 h; conditions: Homo sapiens, MKN-45, 48 h
Protocol: as §2

[11] = tested on: OVCAR-4; test: cells; design: species or system JFCR39 human cancer cell lines; JFCR39 panel growth inhibition, sulforhodamine B total protein after 48 h; conditions: Homo sapiens, OVCAR-4, 48 h
Protocol: as §2

[12] = tested on: RXF-631L; test: cells; design: species or system JFCR39 human cancer cell lines; JFCR39 panel growth inhibition, sulforhodamine B total protein after 48 h; conditions: RXF-631L, 48 h
Protocol: as §2

[13] = tested on: A549; test: cells; design: species or system JFCR39 human cancer cell lines; JFCR39 panel growth inhibition, sulforhodamine B total protein after 48 h; conditions: Homo sapiens, A549, 48 h
Protocol: as §2

[14] = tested on: SF-295; test: cells; design: species or system JFCR39 human cancer cell lines; JFCR39 panel growth inhibition, sulforhodamine B total protein after 48 h; conditions: Homo sapiens, SF-295, 48 h
Protocol: as §2

[15] = tested on: SF-539; test: cells; design: species or system JFCR39 human cancer cell lines; JFCR39 panel growth inhibition, sulforhodamine B total protein after 48 h; conditions: Homo sapiens, SF-539, 48 h
Protocol: as §2

[16] = tested on: SK-OV-3; test: cells; design: species or system JFCR39 human cancer cell lines; JFCR39 panel growth inhibition, sulforhodamine B total protein after 48 h; conditions: Homo sapiens, SK-OV-3, 48 h
Protocol: as §2

[17] = replicate 1, relative to DMSO 1%, read-out: % viability, viability 1
[18] = replicate 2, relative to DMSO 1%, read-out: % viability, viability 2
[19] = DL1 cells (embryonic macrophage-derived), replicate 1, relative to DMSO 1%, read-out: % viability, viability 1
[20] = DL1 cells (embryonic macrophage-derived), replicate 2, relative to DMSO 1%, read-out: % viability, viability 2
[21] = average of numeric determinations, read-out: Avg. EC50

Work on C=C1CCC2C(C)(CCC=C(C)C)C(O)CCC2(C)C1Cc1c(OC)oc(C)c(C)c1=O (stereo not drawn) [Compound 11] yielded a viability at 0.04 µM [1, 17] of 216%, a viability at 0.04 µM [1, 18] of 202% and a viability at 0.2 µM [1, 17] of 191%. The viability at 10 µM [1, 17] was 20.5%, the viability at 10 µM [1, 18] was 22.2% and the viability at 20 µM [1, 17] was 22.4%. For the same compound, the viability at 20 µM [1, 18] was 22.4%, the “Luminescence Raw1” value ([2]; 0.04 µM, replicate 1) was 2962736 and the “Luminescence Raw2” value ([2]; 0.04 µM, replicate 2) was 2763628. For the same compound, the “Luminescence Raw1” value ([2]; 0.2 µM, replicate 1) was 2626203, the “Luminescence Raw2” value ([2]; 0.2 µM, replicate 2) was 2499962 and the “% viability, viability 2” value ([2]; 0.2 µM) was 182.283%. For the same compound, the “Luminescence Raw1” value ([2]; 1 µM, replicate 1) was 427059, the “% viability, viability 1” value ([2]; 1 µM) was 31.1387% and the “Luminescence Raw2” value ([2]; 1 µM, replicate 2) was 482949. For the same compound, the “% viability, viability 2” value ([2]; 1 µM) was 35.2139%, the “Luminescence Raw1” value ([2]; 4 µM, replicate 1) was 281027 and the “% viability, viability 1” value ([2]; 4 µM) was 20.4909%. The “Luminescence Raw2” value ([2]; 4 µM, replicate 2) was 305186, the “% viability, viability 2” value ([2]; 4 µM) was 22.2524% and the “Luminescence Raw1” value ([2]; 10 µM, replicate 1) was 281749. For the same compound, the “Luminescence Raw2” value ([2]; 10 µM, replicate 2) was 304825, the “Luminescence Raw1” value ([2]; 20 µM, replicate 1) was 307710 and the “Luminescence Raw2” value ([2]; 20 µM, replicate 2) was 306988. For the same compound, the IC50 ([2]; average±SEM) was 0.4 ± 0.02 µM, the IC50 ([2]; read-out: IC50 (1), replicate 1) was 0.38 µM and the IC50 ([2]; read-out: IC50 (2), replicate 2) was 0.415 µM. For the same compound, the IC50 ([2]; read-out: IC50 Average, average of two replicates) was 0.397 µM, the EC50 ([3]; MAGI assay, read-out: EC50) was less than 0.2 µM and the EC50 ([3]; single determinations, read-out: Efficacy (EC50)) was greater than 10 µM. For the same compound, the GI50 [4] was 0.199 µM, the GI50 [5] was 36.7 µM and the GI50 [6] was 1.22 µM. It also gave a GI50 [7] of 13.6 µM, a GI50 [8] of 0.308 µM and a GI50 [9] of 3.7 µM. The GI50 [10] was 18.6 µM, the GI50 [11] was 9.06 µM and the GI50 [12] was 19.3 µM.
Work on C=C1CCC2C(C)(CCC=C(C)C)C(O)CCC2(C)C1Cc1c(OC)oc(C)c(C(=O)OC)c1=O (stereo not drawn) [Compound 14] yielded a viability at 0.04 µM [1, 19] of 109%, a viability at 0.04 µM [1, 20] of 115% and a viability at 0.2 µM [1, 19] of 94.8%. It also gave a viability at 0.2 µM [1, 20] of 82.2%, a viability at 1 µM [1, 19] of 10.1% and a viability at 1 µM [1, 20] of 8.02%. For the same compound, the viability at 4 µM [1, 19] was 5.72%, the viability at 4 µM [1, 20] was 6.14% and the viability at 10 µM [1, 19] was 6.46%. For the same compound, the viability at 10 µM [1, 20] was 5.9%, the viability at 20 µM [1, 19] was 5.02% and the viability at 20 µM [1, 20] was 4.22%. The “Luminescence Raw1” value ([2]; 0.04 µM, replicate 1) was 2252387, the “Luminescence Raw2” value ([2]; 0.04 µM, replicate 2) was 2365278 and the “Luminescence Raw1” value ([2]; 0.2 µM, replicate 1) was 1952676. The “Luminescence Raw2” value ([2]; 0.2 µM, replicate 2) was 1693730, the “Luminescence Raw1” value ([2]; 1 µM, replicate 1) was 208403 and the “Luminescence Raw2” value ([2]; 1 µM, replicate 2) was 165136. The “Luminescence Raw1” value ([2]; 4 µM, replicate 1) was 117902, the “Luminescence Raw2” value ([2]; 4 µM, replicate 2) was 126556 and the “Luminescence Raw1” value ([2]; 10 µM, replicate 1) was 133046. For the same compound, the “Luminescence Raw2” value ([2]; 10 µM, replicate 2) was 121508, the “Luminescence Raw1” value ([2]; 20 µM, replicate 1) was 103480 and the “Luminescence Raw2” value ([2]; 20 µM, replicate 2) was 86894. It also gave an IC50 ([2]; Drosophila melanogaster, average of two replicates, read-out: IC50 Average) of 0.438 µM, an IC50 ([2]; Drosophila melanogaster, average±SEM, read-out: IC50) of 0.44 ± 0.06 µM and an IC50 ([2]; Drosophila melanogaster, replicate 1, read-out: IC50 (1)) of 0.502 µM. The IC50 ([2]; Drosophila melanogaster, replicate 2, read-out: IC50 (2)) was 0.374 µM, the EC50 ([3]; MAGI assay, read-out: EC50) was less than 0.2 µM and the EC50 [3, 21] was 0.0457 µM. For the same compound, the GI50 [13] was 11 µM, the GI50 [4] was 0.289 µM and the GI50 [5] was 16.7 µM. The GI50 [6] was 10.2 µM, the GI50 [7] was 13.2 µM and the GI50 [9] was 2.01 µM. For the same compound, the GI50 [10] was 13 µM, the GI50 [11] was 11.9 µM and the GI50 [12] was 14.5 µM. For the same compound, the GI50 [14] was 11.5 µM, the GI50 [15] was 12.4 µM and the GI50 [16] was 13.6 µM.
With C=C1CC[C@@H]2[C@](C)(CC[C@H]3O[C@H](C=C(C)C)C[C@@]23C)[C@@H]1Cc1c(OC)oc(C)c(C)c1=O [Compound 22, O-methylated higginsianin A] the EC50 [3, 21] was 0.143 µM, the GI50 [4] was 0.224 µM and the GI50 [5] was 8.85 µM. It also gave a GI50 [7] of 7.66 µM, a GI50 [8] of 0.211 µM and a GI50 [9] of 0.54 µM. For the same compound, the GI50 [10] was 10.4 µM, the GI50 [11] was 2.77 µM and the GI50 [12] was 8.05 µM. For the same compound, the GI50 [14] was 2.45 µM, the GI50 [15] was 10.5 µM and the GI50 [16] was 10.6 µM.
